Data as given in patent US12383522B2, “Baclofen formulations and methods of minimizing patient exposure to metabolite variations” (AMNEAL PHARMACEUTICALS LLC, priority 2021, dated 2025).
Read-outs that look alike come from different tables or passages of the source.

Columns and labels:
[1] = background statement; cited from earlier work
[2] = Accelerated stability studies of API/stabilizer preparations (Example 1), lactam impurity A by HPLC; type: physicochemical

## O=C(O)CC(CO)c1ccc(Cl)cc1 (centres unmarked) [Treatment M1, 3-(4-chlorophenyl)-4-hydroxybutyric acid]
[1]
  biological activity of metabolite (limited evaluation): inactive
  share of dominant metabolite of baclofen (reported): 15%

## NCC(CC(=O)O)c1ccc(Cl)cc1 (centres unmarked) [baclofen, 4-amino-3-(4-chlorophenyl)butanoic acid]
[2]; closed glass vials, 60° C. (baclofen, gabapentin) or 80° C. (pregabalin), HPLC, FIGS. 1-12
  effect of EUDRAGIT E on formation of lactam impurity A: stabilization effect

## NCC1(CC(=O)O)CCCCC1 [gabapentin]
[2]
  effect of EUDRAGIT E on formation of lactam impurity A: destabilization effect

## CC(C)C[C@H](CN)CC(=O)O [pregabalin]
[2]
  effect of EUDRAGIT E on formation of lactam impurity A: destabilization effect
